Read-outs that look alike come from different tables or passages of the source.
Tests used:
[1] = log P determination by HPLC (EEC Directive 79/831 Annex V.A8); assay type: physicochemical
Procedure: The measurements were carried out using an Agilent 1100 LC system with a 50*4.6 Zorbax Eclipse C18 1.8 μm column (oven temperature 55° C., flow rate 2.0 ml/min).
The following mobile phases were used:
Mobile phase A: acetonitrile+1000 μl of formic acid/l
Mobile phase B: Millipore water+900 μl of formic acid/l

[2] = tested on: caterpillars of the armyworm (Spodoptera frugiperda); assay: Spodoptera frugiperda test (SPODFR spray treatment); assay type: in vivo; conditions: Spodoptera frugiperda, foliar, read-out: effect in % (caterpillars killed)
Text: (§1) Solvent: 78.0 parts by weight of acetone

[3] = tested on: green peach aphid (Myzus persicae); assay: Myzus test (MYZUPE spray treatment); assay type: in vivo; conditions: Myzus persicae, foliar, read-out: effect in % (aphids killed)
Text: Solvent: 78 parts by weight of acetone
as §1

[4] = tested on: larvae of the mustard beetle (Phaedon cochleariae); assay: Phaedon test (PHAECO spray treatment); conditions: Phaedon cochleariae, in Brassica rapa, foliar, read-out: effect in % (beetle larvae killed)
[5] = reversed-phase HPLC, Zorbax Eclipse C18 column, by HPLC according to EEC Directive 79/831 Annex V.A8, read-out: log P
[6] = application rate 100 g/ha, maize leaf discs
[7] = application rate 100 g/ha, Chinese cabbage leaf discs
[8] = reversed-phase HPLC, Zorbax Eclipse C18 column, determined by HPLC according to EEC Directive 79/831 Annex V.A8, read-out: log P

Row | chromatographic logP [1, 5] | chromatographic logP [1, 8] | SMILES | pest or weed control at 100 g/ha [2, 6] [%] | pest or weed control at 100 g/ha [3, 7] [%] | pest or weed control at 100 g/ha [4] [%] | chromatographic logP ([1]; log P) | pest or weed control at 100 g/ha ([2]; in Zea mays) [%] | pest or weed control at 100 g/ha ([3]; in Brassica rapa) [%] | pest or weed control at 20 g/ha ([3]; application rate 20 g/ha, Chinese cabbage leaf discs) [%] | chromatographic logP ([1]; by HPLC according to EEC Directive 79/831 Annex V.A8, read-out: log P) | pest or weed control at 20 g/ha ([3]; in Brassica rapa) [%]
1 | 2.92 | – | CNC(=O)c1cc(C#N)cc(C)c1NC(=O)c1cc(Cn2nnc(C(F)(F)F)n2)nn1-c1ccccc1F [Example 318] | ≥ 80 | ≥ 80 | ≥ 80 | – | – | – | – | – | –
2 | – | 2.97 | Cc1cc(C#N)cc(C(=O)NCC#N)c1NC(=O)c1cc(Cn2nnc(C(F)(F)F)n2)nn1-c1ccccc1Cl [Example 540] | ≥ 80 | ≥ 80 | ≥ 80 | – | – | – | – | – | –
3 | – | – | Cc1cc(C#N)cc(C(=O)NCC2CC2)c1NC(=O)c1cc(Cn2nnc(C(F)F)n2)nn1-c1ncccc1Cl [Example 269] | – | – | ≥ 80 | 2.66 | ≥ 80 | ≥ 80 | – | – | –
4 | – | – | Cc1cc(Br)cc(C(=O)NC(C)C)c1NC(=O)c1cc(Cn2nnnc2C(F)(F)F)nn1-c1ncccc1Cl [Example 171] | – | – | ≥ 80 | 3.22 | ≥ 80 | ≥ 80 | – | – | –
5 | – | 3.27 | Cc1cc(Br)cc(C(=O)NC(C)C)c1NC(=O)c1cc(Cn2nnnc2C(F)(F)F)nn1-c1ncccc1Br [Example 501] | ≥ 80 | ≥ 80 | ≥ 80 | – | – | – | – | – | –
6 | – | – | Cc1cc(Cl)cc(C(=O)NC(C)CF)c1NC(=O)c1cc(Cn2nnc(C(F)(F)F)n2)nn1-c1ncccc1Cl (centres unmarked) [Example 328] | – | – | ≥ 80 | 3.3 | ≥ 80 | ≥ 80 | – | – | –
7 | – | – | Cc1cc(Cl)cc(C(=O)NCC#N)c1NC(=O)c1cc(Cn2nnc(C(F)(F)F)n2)nn1-c1ncccc1Cl [Example 19] | – | – | ≥ 80 | 2.93 | ≥ 80 | ≥ 80 | – | – | –
8 | – | 3.25 | Cc1cc(C#N)cc(C(=O)NC(C)C)c1NC(=O)c1cc(Cn2nnnc2C(F)(F)F)nn1-c1ccccc1Cl [Example 491] | ≥ 80 | ≥ 80 | ≥ 80 | – | – | – | – | – | –
9 | – | – | CC(C)NC(=O)c1cc(Cl)cc(Cl)c1NC(=O)c1cc(Cn2nnc(C(F)(F)C(F)(F)F)n2)nn1-c1ncccc1Cl [Example 153] | – | – | ≥ 80 | 3.81 | ≥ 80 | ≥ 80 | – | – | –
10 | 3.88 | – | Cc1cc(Cl)cc(C(=O)NC(C)(C)C)c1NC(=O)c1cc(Cn2nnc(C(F)(F)F)n2)nn1-c1ncccc1Br [Example 329] | ≥ 80 | – | ≥ 80 | – | – | – | ≥ 80 | – | –
11 | – | – | CNC(=O)c1cc(I)cc(C)c1NC(=O)c1cc(Cn2nnnc2C(F)(F)F)nn1-c1ncccc1Cl [Example 172] | – | – | ≥ 80 | 2.86 | ≥ 80 | ≥ 80 | – | – | –
12 | – | – | NC(=O)c1cc(Cl)cc(Cl)c1NC(=O)c1cc(Cn2nnc(C(F)(C(F)(F)F)C(F)(F)F)n2)nn1-c1ncccc1Cl [Example 391] | – | – | ≥ 80 | 3.41 | ≥ 80 | ≥ 80 | – | – | –
13 | – | – | Cc1cc(C#N)cc(C(=O)NC2CC2)c1NC(=O)c1cc(Cn2nnc(C(F)(F)C(F)(F)C(F)(F)F)n2)nn1-c1ncccc1Cl [Example 113] | – | – | ≥ 80 | – | ≥ 80 | ≥ 80 | – | 3.58 | –
14 | – | – | Cc1cc(Cl)cc(C(=O)NC2CC2)c1NC(=O)c1cc(Cn2nnnc2C(F)F)nn1-c1ncccc1Cl [Example 461] | – | – | ≥ 80 | 2.5 | ≥ 80 | – | – | – | ≥ 80
15 | – | 2.8 | Cc1cc(C#N)cc(C(N)=O)c1NC(=O)c1cc(Cn2nnc(C(F)(F)C(F)(F)F)n2)nn1-c1ncccc1Br [Example 424] | ≥ 80 | ≥ 80 | ≥ 80 | – | – | – | – | – | –
16 | – | 3.29 | Cc1cc(C#N)cc(C(=O)NC2CC2)c1NC(=O)c1cc(Cn2nnc(C(F)(F)F)n2)nn1-c1ccccc1Cl [Example 442] | ≥ 80 | ≥ 80 | ≥ 80 | – | – | – | – | – | –
17 | – | 3.11 | Cc1cc(I)cc(C(=O)NC2CC2)c1NC(=O)c1cc(Cn2nnnc2C(F)(F)F)nn1-c1ncccc1Br [Example 495] | ≥ 80 | ≥ 80 | ≥ 80 | – | – | – | – | – | –

Reference: US8324390B2, “Tetrazole-substituted anthranilamides as pesticides” (Bayer CropScience AG, priority 2008, dated 2012)
